Experiments:
galium = assay: Test C postemergence; format: in vivo, Galium aparine
Procedure, shortened: (§1)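 Rated visually on 0–100 (100 = complete control) after 13–15 days under glass. Treatments went onto freshly seeded loam/sand soil or onto emerged plants at the 1- to 4-leaf stage, using a surfactant-containing solvent formulation.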

waterhemp = assay: Test C postemergence; format: in vivo, Amaranthus rudis; conditions: for Waterhemp plant response rating: 31 g ai/ha
Procedure, shortened: as §1

corn [1] = assay: Test A postemergence; format: in vivo, Zea mays; conditions: 0 to 100 scale, 0 no effect, 100 complete control
Procedure, shortened: (§2)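 Injury scores run from 0, no effect, to 100, complete control, judged by eye against untreated plants roughly 10 days after treatment. Chemicals carried a surfactant in a non-phytotoxic solvent and went onto loam–sand soil preemergence or onto one- to two-leaf seedlings postemergence.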

corn [2] = assay: Test C postemergence; format: in vivo, Zea mays
Procedure, shortened: as §1

Italian ryegrass [3] = assay: Test C postemergence; format: in vivo, Lolium multiflorum; conditions: for Ryegrass, Italian plant response rating: 31 g ai/ha
Procedure, shortened: as §1

kochia = assay: Test A preemergence; format: in vivo, Kochia scoparia
Procedure, shortened: as §2

barnyardgrass [4] = assay: Test A postemergence; format: in vivo, Echinochloa crus-galli; conditions: 0 to 100 scale, 0 no effect, 100 complete control
Procedure, shortened: as §2

lambsquarters = assay: Test C postemergence; format: in vivo, Chenopodium album; conditions: for Lambsquarters plant response rating: 31 g ai/ha
Procedure, shortened: as §1

ragweed = assay: Test A preemergence; format: in vivo, Ambrosia elatior
Procedure, shortened: as §2

rice = assay: Test B flooded paddy test; format: in vivo, Oryza sativa; conditions: Flood, 250 g ai/ha, 0 to 100 scale where 0 is no effect and 100 is complete control
Procedure, shortened: (§3)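 Post-emergence paddy-water application at the 2-leaf stage, with 3 cm flood kept for the whole test. Response was judged visually relative to controls after 13 to 15 greenhouse days, 0 indicating no effect and 100 complete control.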

Heteranthera limosa = assay: Test B flooded paddy test; format: in vivo; conditions: Flood, 250 g ai/ha, 0 to 100 scale where 0 is no effect and 100 is complete control
Procedure, shortened: as §3

pigweed = assay: Test C postemergence; format: in vivo, Amaranthus retroflexus; conditions: for Pigweed plant response rating: 31 g ai/ha
Procedure, shortened: as §1

Italian ryegrass [5] = assay: Test A preemergence; format: in vivo, Lolium multiflorum
Procedure, shortened: as §2

barnyardgrass [6] = assay: Test B flooded paddy test; format: in vivo, Echinochloa crus-galli; conditions: Flood, 250 g ai/ha, 0 to 100 scale where 0 is no effect and 100 is complete control
Procedure, shortened: as §3

[7] = postemergence, visual rating, scale 0 to 100 (0 no effect, 100 complete control), 13 to 15 days
[8] = 1000 g ai/ha, 0 to 100 scale, 0 no effect, 100 complete control, approx. 10 days
[9] = 16 g ai/ha, postemergence, 0 is no effect, 100 is complete control
[10] = 31 g ai/ha, postemergence, visual rating, scale 0 to 100 (0 no effect, 100 complete control), 13 to 15 days
[11] = 125 g ai/ha, postemergence, visual rating, scale 0 to 100 (0 no effect, 100 complete control)
[12] = Postemergence, 62 g ai/ha, scale 0 to 100 (0 no effect, 100 complete control), 13 to 15 days
[13] = 31 g ai/ha, 0 to 100 scale where 0 is no effect and 100 is complete control, visual, approximately 10 days

Q: Which results are given for `Clc1cnc(Oc2ccccc2-n2cc(C3CC3)nn2)nc1` [Compound 160, 5-chloro-2-[2-(4-cyclopropyl-1H-1,2,3-triazol-1-yl)phenoxy]pyrimidine]?
A: pest or weed control at 16 g/ha (galium; Galium, post-emergence, 16 g ai/ha, postemergence, 0 is no effect, 100 is complete control, read-out: Plant response rating (0 to 100), Galium): 80%; pest or weed control at 31 g/ha (galium; Galium, post-emergence, 31 g ai/ha, postemergence, visual rating, scale 0 to 100 (0 no effect, 100 complete control), 13 to 15 days, read-out: Galium plant response rating): 80%; pest or weed control at 125 g/ha (galium; Galium, post-emergence, 125 g ai/ha, postemergence, visual rating, scale 0 to 100 (0 no effect, 100 complete control), read-out: Plant response rating, Galium): 85%; pest or weed control at 62 g/ha (galium; Galium, post-emergence, Postemergence, 62 g ai/ha, scale 0 to 100 (0 no effect, 100 complete control), read-out: Plant response rating, Galium): 95%; Waterhemp plant response rating (waterhemp; [7]): 35; pest or weed control at 16 g/ha (waterhemp; Amaranthus tuberculatus, post-emergence, 16 g ai/ha, postemergence, 0 is no effect, 100 is complete control, read-out: Plant response rating (0 to 100), Waterhemp): 70%; pest or weed control at 125 g/ha (waterhemp; Amaranthus tuberculatus, post-emergence, 125 g ai/ha, postemergence, visual rating, scale 0 to 100 (0 no effect, 100 complete control), read-out: Plant response rating, Waterhemp): 85%; pest or weed control at 62 g/ha (waterhemp; Amaranthus tuberculatus, post-emergence, Postemergence, 62 g ai/ha, scale 0 to 100 (0 no effect, 100 complete control), read-out: Plant response rating, Waterhemp): 70%; plant injury at 1000 g/ha (corn [1]; Zea mays, post-emergence, 240 h, 1000 g ai/ha, read-out: Plant response rating Corn): 100%; plant injury at 16 g/ha (corn [2]; Zea mays, post-emergence, 16 g ai/ha, postemergence, 0 is no effect, 100 is complete control, read-out: Plant response rating (0 to 100), Corn): 0%; plant injury at 31 g/ha (corn [2]; Zea mays, post-emergence, 31 g ai/ha, postemergence, visual rating, scale 0 to 100 (0 no effect, 100 complete control), 13 to 15 days, read-out: Corn plant response rating): 5%; Corn plant response rating (crop injury, 0 = no effect, 100 = complete kill) at 125 g/ha (corn [2]; Zea mays, post-emergence, 125 g ai/ha, postemergence, visual rating, scale 0 to 100 (0 no effect, 100 complete control)): 5%; Corn plant response rating (crop injury, 0 = no effect, 100 = complete kill) at 62 g/ha (corn [2]; Zea mays, post-emergence, Postemergence, 62 g ai/ha, scale 0 to 100 (0 no effect, 100 complete control)): 5%; Ryegrass, Italian plant response rating (Italian ryegrass [3]; [7]): 0; pest or weed control at 16 g/ha (Italian ryegrass [3]; Lolium multiflorum, post-emergence, 16 g ai/ha, postemergence, 0 is no effect, 100 is complete control, read-out: Plant response rating (0 to 100), Ryegrass, Italian): 0%; pest or weed control at 125 g/ha (Italian ryegrass [3]; Lolium multiflorum, post-emergence, 125 g ai/ha, postemergence, visual rating, scale 0 to 100 (0 no effect, 100 complete control), read-out: Plant response rating, Ryegrass, Italian): 5%; pest or weed control at 62 g/ha (Italian ryegrass [3]; Lolium multiflorum, post-emergence, Postemergence, 62 g ai/ha, scale 0 to 100 (0 no effect, 100 complete control), read-out: Plant response rating, Ryegrass, Italian): 0%; Kochia plant response rating (kochia; [8]): 100; pest or weed control at 1000 g/ha (barnyardgrass [4]; Echinochloa crus-galli, post-emergence, 240 h, 1000 g ai/ha, read-out: Plant response rating Barnyardgrass): 100%; Lambsquarters plant response rating (lambsquarters; [7]): 65; pest or weed control at 16 g/ha (lambsquarters; Chenopodium album, post-emergence, 16 g ai/ha, postemergence, 0 is no effect, 100 is complete control, read-out: Plant response rating (0 to 100), Lambsquarters): 65%; pest or weed control at 125 g/ha (lambsquarters; Chenopodium album, post-emergence, 125 g ai/ha, postemergence, visual rating, scale 0 to 100 (0 no effect, 100 complete control), read-out: Plant response rating, Lambsquarters): 95%; pest or weed control at 62 g/ha (lambsquarters; Chenopodium album, post-emergence, Postemergence, 62 g ai/ha, scale 0 to 100 (0 no effect, 100 complete control), read-out: Plant response rating, Lambsquarters): 70%; Ragweed plant response rating (ragweed; [8]): 100; plant injury at 250 g/ha (rice; Oryza sativa, read-out: Plant response rating, Rice): 35%; pest or weed control at 250 g/ha (Heteranthera limosa; Heteranthera limosa, read-out: Plant response rating, Ducksalad): 80%; Pigweed plant response rating (pigweed; [7]): 75; pest or weed control at 16 g/ha (pigweed; Amaranthus retroflexus, post-emergence, 16 g ai/ha, postemergence, 0 is no effect, 100 is complete control, read-out: Plant response rating (0 to 100), Pigweed): 80%; pest or weed control at 125 g/ha (pigweed; Amaranthus retroflexus, post-emergence, 125 g ai/ha, postemergence, visual rating, scale 0 to 100 (0 no effect, 100 complete control), read-out: Plant response rating, Pigweed): 85%; pest or weed control at 62 g/ha (pigweed; Amaranthus retroflexus, post-emergence, Postemergence, 62 g ai/ha, scale 0 to 100 (0 no effect, 100 complete control), read-out: Plant response rating, Pigweed): 75%; Ryegrass, Italian plant response rating (Italian ryegrass [5]; [8]): 90; pest or weed control at 250 g/ha (barnyardgrass [6]; Echinochloa crus-galli, read-out: Plant response rating, Barnyardgrass): 35%

Q: `FCc1cccc(Oc2ncc(Cl)cn2)c1-n1cc(I)cn1` [Compound 245] was tested. Which “Plant response rating (0 to 100), Galium” value (galium; [9]) did it give?
A: Its value is 60.

Q: And the “Galium plant response rating” value (galium; [10])?
A: The value was 60.

Q: And the “Plant response rating, Galium” value (galium; [11])?
A: Its value is 85.

Q: What about the “Plant response rating, Galium” value (galium; [12]) of the same compound?
A: The value was 80.

Q: What about the “Plant response rating (0 to 100), Waterhemp” value (waterhemp; [9]) of the same compound?
A: Its value is 60.

Q: And the “Waterhemp plant response rating” value (waterhemp; [7])?
A: Its value is 65.

Q: And the “Plant response rating, Waterhemp” value (waterhemp; [11])?
A: Its value is 75.

Q: And the “Plant response rating, Waterhemp” value (waterhemp; [12])?
A: Its value is 85.

Q: And the “Plant response rating, Corn” value (corn [1]; 31 g ai/ha)?
A: The value was 20.

Q: What about the “Plant response rating, Corn” value (corn [1]; 125 g ai/ha) of the same compound?
A: The value was 40.

Q: What about the “Plant response rating (0 to 100), Corn” value (corn [2]; [9]) of the same compound?
A: The value was 5.

Q: And the “Corn plant response rating” value (corn [2]; [10])?
A: The value was 5.

Q: What about the “Plant response rating, Corn” value (corn [2]; [11]) of the same compound?
A: Its value is 5.

Q: What about the “Plant response rating, Corn” value (corn [2]; [12]) of the same compound?
A: Its value is 5.

Q: And the “Plant response rating (0 to 100), Ryegrass, Italian” value (Italian ryegrass [3]; [9])?
A: The value was 0.

Q: What about the “Ryegrass, Italian plant response rating” value (Italian ryegrass [3]; [7]) of the same compound?
A: Its value is 0.

Q: What about the “Plant response rating, Ryegrass, Italian” value (Italian ryegrass [3]; [11]) of the same compound?
A: Its value is 5.

Q: And the “Plant response rating, Ryegrass, Italian” value (Italian ryegrass [3]; [12])?
A: Its value is 0.

Q: What about the “Plant response rating, Kochia” value (kochia; [13]) of the same compound?
A: Its value is 0.

Q: And the “Kochia plant response rating (0 to 100 scale)” value (kochia; 125 g ai/ha)?
A: The value was 30.

Q: And the “Plant response rating, Barnyardgrass” value (barnyardgrass [4]; 31 g ai/ha)?
A: Its value is 0.

Q: What about the “Plant response rating, Barnyardgrass” value (barnyardgrass [4]; 125 g ai/ha) of the same compound?
A: Its value is 30.

Q: And the “Plant response rating (0 to 100), Lambsquarters” value (lambsquarters; [9])?
A: Its value is 50.

Q: And the “Lambsquarters plant response rating” value (lambsquarters; [7])?
A: The value was 70.

Q: And the “Plant response rating, Lambsquarters” value (lambsquarters; [11])?
A: Its value is 98.

Q: What about the “Plant response rating, Lambsquarters” value (lambsquarters; [12]) of the same compound?
A: The value was 80.

Q: And the “Plant response rating, Ragweed” value (ragweed; [13])?
A: The value was 0.

Q: And the “Ragweed plant response rating (0 to 100 scale)” value (ragweed; 125 g ai/ha)?
A: Its value is 0.

Q: And the “Plant response rating, Rice” value (rice)?
A: Its value is 0.

Q: What about the “Plant response rating, Ducksalad” value (Heteranthera limosa) of the same compound?
A: The value was 75.

Q: What about the “Plant response rating (0 to 100), Pigweed” value (pigweed; [9]) of the same compound?
A: Its value is 40.

Q: What about the “Pigweed plant response rating” value (pigweed; [7]) of the same compound?
A: Its value is 55.

Q: What about the “Plant response rating, Pigweed” value (pigweed; [11]) of the same compound?
A: Its value is 85.

Q: What about the “Plant response rating, Pigweed” value (pigweed; [12]) of the same compound?
A: The value was 75.

Q: What about the “Plant response rating, Ryegrass, Italian” value (Italian ryegrass [5]; [13]) of the same compound?
A: The value was 0.

Q: And the “Ryegrass, Italian plant response rating (0 to 100 scale)” value (Italian ryegrass [5]; 125 g ai/ha)?
A: Its value is 0.

Q: What about the “Plant response rating, Barnyardgrass” value (barnyardgrass [6]) of the same compound?
A: Its value is 0.
